Assay results published in patent US11180490B2, “Cyclopropyl urea formyl peptide 2 receptor and formyl peptide 1 receptor agonists” (BRISTOL-MYERS SQUIBB COMPANY, priority 2017, dated 2021).

Experiments:
human FPR1 = target: T1, human FPR1 (Homo sapiens, UniProt P21462); assay: FPR1 cyclic adenosine monophosphate (cAMP) assay; assay type: cell-based; settings: CHO cells overexpressing human FPR1; inhibition of forskolin-stimulated cAMP production; read-out: hFPR1 cAMP EC50
T1 sequence (P21462 1-350): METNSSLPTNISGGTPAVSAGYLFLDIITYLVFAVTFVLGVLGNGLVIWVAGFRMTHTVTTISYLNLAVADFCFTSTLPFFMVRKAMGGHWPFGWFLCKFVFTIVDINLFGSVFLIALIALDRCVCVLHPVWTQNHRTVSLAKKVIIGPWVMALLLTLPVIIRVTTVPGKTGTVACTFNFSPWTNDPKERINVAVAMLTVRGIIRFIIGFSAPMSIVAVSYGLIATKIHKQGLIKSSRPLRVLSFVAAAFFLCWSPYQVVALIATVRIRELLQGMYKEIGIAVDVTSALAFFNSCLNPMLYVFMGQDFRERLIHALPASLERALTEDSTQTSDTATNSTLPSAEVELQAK
Protocol: (§1) FPR2 and FPR1 Cyclic Adenosine Monophosphate (cAMP) Assays. A mixture of forskolin (5 μM final for FPR2 or 10 μM final for FPR1) and IBMX (200 μM final) were added to 384-well Proxiplates (Perkin-Elmer) pre-dotted with test compounds in DMSO (1% final) at final concentrations in the range of 1.7 nM to 100 μM. Chinese Hamster Ovary cells (CHO) overexpressing human FPR1 or human FPR2 receptors were cultured in F-12 (Ham's) medium supplemented with 10% qualified FBS, 250 μg/ml zeocin and 300 μg/ml hygromycin (Life Technologies). Reactions were initiated by adding 2,000 human FPR2 cells per well or 4,000 human FPR1 cells per well in Dulbecco's PBS (with calcium and magnesium) (Life Technologies) supplemented with 0.1% BSA (Perkin-Elmer). The reaction mixtures were incubated for 30 min at room temperature. The level of intracellular cAMP was determined using the HTRF HiRange cAMP assay reagent kit (Cisbio) according to manufacturer's instruction. Solutions of cryptate conjugated anti-cAMP and d2 flurorophore-labelled cAMP were made in a supplied lysis buffer separately. Upon completion of the reaction, the cells were lysed with equal volume of the d2-cAMP solution and anti-cAMP solution. After a 1-h room temperature incubation, time-resolved fluorescence intensity was measured using the Envision (Perkin-Elmer) at 400 nm excitation and dual emission at 590 nm and 665 nm. A calibration curve was constructed with an external cAMP standard at concentrations ranging from 1 μM to 0.1 pM by plotting the fluorescent intensity ratio from 665 nm emission to the intensity from the 590 nm emission against cAMP concentrations. The potency and activity of a compound to inhibit cAMP production was then determined by fitting to a 4-parametric logistic equation from a plot of cAMP level versus compound concentrations.

human FPR2 = target: T2, human FPR2 (Homo sapiens, UniProt P25090); assay: FPR2 cyclic adenosine monophosphate (cAMP) assay; assay type: cell-based; settings: CHO cells overexpressing human FPR2; inhibition of forskolin-stimulated cAMP production; read-out: hFPR2 cAMP2 EC50
T2 sequence (P25090 1-351): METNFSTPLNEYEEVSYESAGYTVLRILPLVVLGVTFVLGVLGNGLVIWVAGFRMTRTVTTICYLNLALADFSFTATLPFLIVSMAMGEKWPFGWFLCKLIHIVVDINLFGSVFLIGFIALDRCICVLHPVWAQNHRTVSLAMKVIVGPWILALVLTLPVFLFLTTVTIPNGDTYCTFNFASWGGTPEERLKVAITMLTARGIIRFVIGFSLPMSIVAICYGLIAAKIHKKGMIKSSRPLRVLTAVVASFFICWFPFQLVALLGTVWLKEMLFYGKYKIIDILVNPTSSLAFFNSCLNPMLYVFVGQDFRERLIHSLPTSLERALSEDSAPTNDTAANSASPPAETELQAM
Protocol: as §1

Compound `COc1cc(F)c([C@@H]2CNC(=O)[C@H]2NC(=O)NC2(c3cccc(Cl)n3)CC2)c(F)c1` [Example 1, 3-[1-(6-chloropyridin-2-yl)cyclopropyl]-1-[(3S,4R)-4-(2,6-difluoro-4-methoxyphenyl)-2-oxopyrrolidin-3-yl]urea] has an EC50 (human FPR1) of 820 nM and an EC50 (human FPR2) of 8.3 nM.

In the case of `COc1cc(F)c([C@@H]2CNC(=O)[C@H]2NC(=O)NC2(c3ccc(C)cc3)CC2)c(F)c1` [Example 2, 1-[(3S,4R)-4-(2,6-difluoro-4-methoxyphenyl)-2-oxopyrrolidin-3-yl]-3-[1-(4-methylphenyl)cyclopropyl]urea], the EC50 (human FPR1) is reported as 660 nM and the EC50 (human FPR2) is reported as 33 nM.

In the case of `COc1cc(F)c([C@@H]2CNC(=O)[C@H]2NC(=O)NC2(c3ccc4ncccc4n3)CC2)c(F)c1` [Example 4, 1-[(3S,4R)-4-(2,6-difluoro-4-methoxyphenyl)-2-oxopyrrolidin-3-yl]-3-[1-(1,5-naphthyridin-2-yl)cyclopropyl]urea], the EC50 (human FPR1) is reported as 1000 nM and the EC50 (human FPR2) is reported as 110 nM.

Compound `COc1cc(F)c([C@@H]2CN(C)C(=O)[C@H]2NC(=O)NC2(c3ccc4ccccc4n3)CC2)c(F)c1` [Example 8, 1-[(3S,4R)-4-(2,6-difluoro-4-methoxyphenyl)-1-methyl-2-oxopyrrolidin-3-yl]-3-[1-(quinolin-2-yl)cyclopropyl]urea] has an EC50 (human FPR1) of 66 nM and an EC50 (human FPR2) of 5.7 nM.

`COc1cc(F)c([C@@H]2CNC(=O)[C@H]2NC(=O)NC2(c3cccc(C(F)(F)F)c3)CC2)c(F)c1` [Example 19, 1-[(3S,4R)-4-(2,6-difluoro-4-methoxyphenyl)-2-oxopyrrolidin-3-yl]-3-{1-[3-(trifluoro-methyl)phenyl]cyclo-propyl}urea] gave an EC50 (human FPR1) of 2300 nM and an EC50 (human FPR2) of 49 nM.

For `COc1cc(F)c([C@@H]2CNC(=O)[C@H]2NC(=O)NC2(c3ccc4ccccc4n3)CC2)c(F)c1` [Example 26, 1-[(3S,4R)-4-(2,6-difluoro-4-methoxyphenyl)-2-oxopyrrolidin-3-yl]-3-[1-(quinolin-2-yl)cyclopropyl]urea], the EC50 (human FPR1) was 320 nM and the EC50 (human FPR2) was 6.4 nM.

Work on `COc1cc(F)c([C@@H]2CNC(=O)[C@H]2NC(=O)NC2(c3ccc(Cl)c(C)n3)CC2)c(F)c1` [Example 47, 3-[1-(5-chloro-6-methylpyridin-2-yl)cyclopropyl]-1-[(3S,4R)-4-(2.6-difluoro-4-methoxyphenyl)-2-oxopyrrolidin-3-yl]urea] yielded an EC50 (human FPR1) of 270 nM and an EC50 (human FPR2) of 2.3 nM.

`COc1ccc([C@@H]2CNC(=O)[C@H]2NC(=O)NC2(c3cccc(Cl)n3)CC2)c(F)c1` [Example 48, 3-[1-(6-chloropyridin-2-yl)cyclopropyl]-1-[(3S,4R)-4-(2-fluoro-4-methoxyphenyl)-2-oxopyrrolidin-3-yl]urea] was tested, and the EC50 (human FPR1) was 140 nM and the EC50 (human FPR2) was 9.7 nM.

`COc1cc(F)c([C@@H]2CNC(=O)[C@H]2NC(=O)NC2(c3ccc(C)c(Cl)c3)CC2)c(F)c1` [Example 50, 3-[1-(3-chloro-4-methylphenyl)cyclopropyl]-1-[(3S,4R)-4-(2,6-difluoro-4-methoxyphenyl)-2-oxopyrrolidin-3-yl]urea] was tested, and the EC50 (human FPR1) was 200 nM and the EC50 (human FPR2) was 1.7 nM.

Compound `COc1cc(F)c([C@@H]2CNC(=O)[C@H]2NC(=O)NC2(c3ccc4cc(Cl)ccc4n3)CC2)c(F)c1` [Example 53, 3-[1-(6-chloroquinolin-2-yl)cyclopropyl]-1-[(3S,4R)-4-(2,6-difluoro-4-methoxyphenyl)-2-oxopyrrolidin-3-yl]urea] has an EC50 (human FPR1) of 430 nM and an EC50 (human FPR2) of 12 nM.

Compound `COc1cc(F)c([C@@H]2CNC(=O)[C@H]2NC(=O)NC2(c3ccc4cc(OC)ccc4c3)CC2)c(F)c1` [Example 63, 1-[(3S,4R)-4-(2,6-difluoro-4-methoxyphenyl)-2-oxopyrrolidin-3-yl]-3-[1-(6-methoxynaphthalen-2-yl)cyclopropyl]urea] has an EC50 (human FPR1) of 1500 nM and an EC50 (human FPR2) of 34 nM.

Work on `COc1cc(F)c([C@@H]2CN(CCO)C(=O)[C@H]2NC(=O)NC2(c3ccc4ccccc4n3)CC2)c(F)c1` [Example 67, 1-[(3S,4R)-4-(2,6-difluoro-4-methoxyphenyl)-1-(2-hydroxyethyl)-2-oxopyrrolidin-3-yl]-3-[1-(quinolin-2-yl)cyclopropyl]urea] yielded an EC50 (human FPR1) of 700 nM and an EC50 (human FPR2) of 63 nM.

For `COc1cc(F)c([C@@H]2CNC(=O)[C@H]2NC(=O)NC2(c3nc4ccc(C)cc4s3)CC2)c(F)c1` [Example 85, 1-[(3S,4R)-4-(2,6-difluoro-4-methoxyphenyl)-2-oxopyrrolidin-3-yl]-3-[1-(6-methyl-1,3-benzothiazol-2-yl)cyclopropyl]urea], the EC50 (human FPR1) was 1600 nM and the EC50 (human FPR2) was 12 nM.

`COc1cc(F)c([C@@H]2CN(CC3CC3)C(=O)[C@H]2NC(=O)NC2(c3cccc(C)n3)CC2)c(F)c1` [Example 94, 1-((3S,4R)-1-(cyclopropylmethyl)-4-(2,6-difluoro-4-methoxyphenyl)-2-oxopyrrolidin-3-yl)-3-(1-(6-methylpyridin-2-yl)cyclopropyl)urea] showed an EC50 (human FPR1) of 26 nM and an EC50 (human FPR2) of 1.5 nM.

With `CCCN1C[C@@H](c2c(F)cc(OC)cc2F)[C@H](NC(=O)NC2(c3ccc4ccccc4n3)CC2)C1=O` [Example 95, 1-[(3S,4R)-4-(2,6-difluoro-4-methoxyphenyl)-2-oxo-1-propylpyrrolidin-3-yl]-3-[1-(quinolin-2-yl)cyclopropyl]urea] the EC50 (human FPR1) was 19 nM and the EC50 (human FPR2) was 1.7 nM.

In the case of `COc1cc(F)c([C@@H]2CNC(=O)[C@H]2NC(=O)NC2(c3nc4c(C(F)(F)F)cccc4s3)CC2)c(F)c1` [Example 96, 1-[(3S,4R)-4-(2,6-difluoro-4-methoxyphenyl)-2-oxopyrrolidin-3-yl]-3-{1-[4-(trifluoromethyl)-1,3-benzothiazol-2-yl]cyclopropyl}urea], the EC50 (human FPR1) is reported as 120 nM and the EC50 (human FPR2) is reported as 2 nM.

`COc1cc(F)c([C@@H]2CN(CC(F)(F)F)C(=O)[C@H]2NC(=O)NC2(c3cccc(C)n3)CC2)c(F)c1` [Example 110, 1-[(3S,4R)-4-(2,6-difluoro-4-methoxyphenyl)-2-oxo-1-(2,2,2-trifluoroethyl)pyrrolidin-3-yl]-3-[1-(6-methylpyridin-2-yl)cyclopropyl]urea] showed an EC50 (human FPR1) of 150 nM and an EC50 (human FPR2) of 14 nM.

`COc1cc(F)c([C@@H]2CN(Cc3nnc(C)o3)C(=O)[C@H]2NC(=O)NC2(c3cccc(C)n3)CC2)c(F)c1` [Example 115] gave an EC50 (human FPR1) of 280 nM and an EC50 (human FPR2) of 25 nM.

`COc1cc(F)c([C@@H]2CNC(=O)[C@H]2NC(=O)NC2(c3cccc(OCc4ccc5ccccc5c4)c3)CC2)c(F)c1` [Example 131, 1-[(3S,4R)-4-(2,6-difluoro-4-methoxyphenyl)-2-oxopyrrolidin-3-yl]-3-(l-{3-[(naphthalen-2-yl)methoxy]phenyl}cyclo-propyl)urea] was tested, and the EC50 (human FPR1) was 1000 nM and the EC50 (human FPR2) was 4 nM.
